# Where “and” joins values, the source holds several entries; their conditions need not be identical. Equal values may be shown once.
# What was measured:
# [1] = Fluorescence quantum yield determination; format: physicochemical; details: in DMSO; for φF fluorescence quantum yield: calculated using riboflavin as the reference
# Method: 4 Fluorescence Quantum Yield Calculations
# The fluorescence quantum yields (ФF) for F1-4 were determined by preparing a series of dilutions in DMSO ranging
# in absorbance values from 0.02 to 0.10 and excited at their respective absorbance maxima (see Table S1).3 The
# emission peak was then integrated and plotted against the absorbance value (see Figure S1). Riboflavin (from
# according to equation (1):
# Φ!;#$%&’( = Φ!;)(* $ !"#$%&% $ !"#$%&) % (1)
# Where Slope = gradient from the plot of integrated emission peak vs. absorption value and η = refractive index
# Flavin ε (M-1cm-1) λex (nm) λem (nm)
# Figure S2: Plot of integrated emission peak against absorbance value of flavins F1-4 and reference compound
# E. coli BL21(DE3) = assay: Photodynamic inactivation of E. coli (CFU counting); format: cell-based
# Method: After an overnight aerobic culture in LB broth at 37 °C with shaking at 225 rpm, the resulting E. coli were centrifuged at 2,500 rpm for 10 min. The pellet was resuspended in PBS (Sigma, 1x, pH 7.4) to an OD600 value of 0.6 (~ 1 × 10^8 bacteria per ml). […] Aliquots of negative controls (0.5% DMSO in PBS; PBS only) and 100 μM flavin-bacteria samples were covered in foil to remain in dark, while all samples were plated onto a 96-well plate and exposed to white LED irradiation (1 × 10^5 lx) for 15 min. After 15 min of irradiation or darkness, each sample was serially diluted to its respective, appropriate dilution and plated onto an LB agar plate with 50 μg/mL kanamycin. Plates were incubated overnight at 37 °C in the dark. Survival of bacteria was determined by counting colony forming units (CFUs) the next day.
# For time point data, aliquots of 100 μM flavin-bacteria solutions were taken at 5-min increments of irradiation (0, 5, 10, and 15 min) and evaluated similarly as above. Time point experiment with one-minute increments, between 0 and 5 min, were conducted for 100 μM F4-bacteria samples.
# pDNA (pUC18) = assay: pDNA photocleavage, agarose gel electrophoresis; format: biochemical; details: 10 µM flavin, 15 min white LED, PBS 0.1% DMSO
# Method: A 20 µL aliquot was taken after 15 min of white LED irradiation (1 × 10^5 lx). Prior to loading, 2 µL of 6X Orange-G loading dye in glycerol were added to the aliquot and mixed vigorously. The gel was electrophoresed at 80 V for 35 min with 1% agarose gels in 1X Tris–acetate-EDTA (TAE) buffer. Gels were then imaged in a Syngene G:BOX Gel Documentation System and band % quantification was performed using ImageJ Gel Analyzer.
# [2] = 100 µM flavin, 5 min irradiation (10.5 J/cm^2)
# [3] = 100 µM flavin, 10 min irradiation
# [4] = 10 µM flavin, 15 min irradiation
Structure (SMILES),ФF fluorescence quantum yield [1],φF fluorescence quantum yield [1],"E. coli reduction of bacteria (E. coli BL21(DE3); 100 µM flavin, 5 min irradiation)",E. coli log10 reduction of CFUs (E. coli BL21(DE3); [2]),E. coli log10 reduction of CFUs (E. coli BL21(DE3); [3]),% NC (nicked coiled pDNA after photocleavage) (pDNA (pUC18)),E. coli log10 reduction of CFUs (E. coli BL21(DE3); [4]),"E. coli reduction of bacteria (E. coli BL21(DE3); 100 µM flavin, 1 min irradiation)","E. coli log10 reduction of CFUs (E. coli BL21(DE3); 100 µM flavin, 1 min irradiation (2.10 J/cm^2), calculated vs t0 = 7.9)","bacterial inactivation, log10 reduction (E. coli BL21(DE3); 15 min irradiation at 11 μM)","E. coli log10 reduction of CFUs (E. coli BL21(DE3); 100 µM flavin, 15 min irradiation)"
CCCCCCCCn1c(=O)nc2n(CCNC(=N)N)c3cc(C)c(C)cc3nc-2c1=O [Flavin F2],14%,0.141 ± 0.010,> 99.9%,3.4 log10,5.9 log10,39%,,,,,
CCCCCCCCn1c(=O)nc2n(CCN)c3cc(C)c(C)cc3nc-2c1=O [Flavin F1],13%,0.129 ± 0.012,,0.1 log10,0.1 log10,,0.2 log10,,,,
CCCCCCCCn1c(=O)nc2n(CCNC(=N)N)c3cc(Br)c(Br)cc3nc-2c1=O [Flavin F4],< 2%,0.011 ± 0.010,,,8.7 log10,21%,2.8 log10,> 99.99%,4.1 log10 and > 4 log10,> 3 log10,
CCCCCCCCn1c(=O)nc2n(CCN)c3cc(Br)c(Br)cc3nc-2c1=O [Flavin F3],< 2%,0.009 ± 0.013,,1.3 log10,1.7 log10,,0.4 log10,,,,1.8 log10
